In patent US20230176038A1, “Methods for Identifying Modulators of Insect Transient Receptor Potential Channels” (BASF Corporation, priority 2019, published 2023):

T1: complexes formed by Nanchung and Water witch proteins (Wtrw + Nan) (Drosophila melanogaster, UniProt Q9VHY7+Q9VUD5)
T1 construct: adenoviral co-expression in CHO-K1 cells, fluo-4 calcium FLIPR
T1 sequence (Q9VUD5 1-833): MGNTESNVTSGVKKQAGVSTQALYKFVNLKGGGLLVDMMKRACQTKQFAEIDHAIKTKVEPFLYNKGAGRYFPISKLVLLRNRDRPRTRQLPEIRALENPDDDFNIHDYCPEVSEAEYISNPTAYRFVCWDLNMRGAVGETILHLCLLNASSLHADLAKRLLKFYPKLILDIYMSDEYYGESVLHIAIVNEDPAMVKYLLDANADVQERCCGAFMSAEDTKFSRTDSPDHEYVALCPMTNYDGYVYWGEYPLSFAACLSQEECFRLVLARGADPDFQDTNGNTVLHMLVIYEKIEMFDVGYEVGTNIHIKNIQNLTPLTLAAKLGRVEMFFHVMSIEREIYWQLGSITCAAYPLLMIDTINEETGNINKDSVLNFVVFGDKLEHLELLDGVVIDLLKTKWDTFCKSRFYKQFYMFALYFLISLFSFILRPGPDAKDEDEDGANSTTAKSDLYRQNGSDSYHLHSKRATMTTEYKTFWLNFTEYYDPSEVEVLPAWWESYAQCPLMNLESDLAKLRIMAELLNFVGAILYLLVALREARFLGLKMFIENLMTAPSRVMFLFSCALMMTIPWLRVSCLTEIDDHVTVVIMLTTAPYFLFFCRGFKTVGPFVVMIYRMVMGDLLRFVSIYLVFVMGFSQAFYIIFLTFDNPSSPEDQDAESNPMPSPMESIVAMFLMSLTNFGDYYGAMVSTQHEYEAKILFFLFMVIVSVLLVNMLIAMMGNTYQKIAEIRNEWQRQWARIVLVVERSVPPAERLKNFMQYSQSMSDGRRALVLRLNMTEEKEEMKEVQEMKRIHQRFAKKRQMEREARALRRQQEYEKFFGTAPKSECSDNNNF
T1 sequence (Q9VHY7 1-986): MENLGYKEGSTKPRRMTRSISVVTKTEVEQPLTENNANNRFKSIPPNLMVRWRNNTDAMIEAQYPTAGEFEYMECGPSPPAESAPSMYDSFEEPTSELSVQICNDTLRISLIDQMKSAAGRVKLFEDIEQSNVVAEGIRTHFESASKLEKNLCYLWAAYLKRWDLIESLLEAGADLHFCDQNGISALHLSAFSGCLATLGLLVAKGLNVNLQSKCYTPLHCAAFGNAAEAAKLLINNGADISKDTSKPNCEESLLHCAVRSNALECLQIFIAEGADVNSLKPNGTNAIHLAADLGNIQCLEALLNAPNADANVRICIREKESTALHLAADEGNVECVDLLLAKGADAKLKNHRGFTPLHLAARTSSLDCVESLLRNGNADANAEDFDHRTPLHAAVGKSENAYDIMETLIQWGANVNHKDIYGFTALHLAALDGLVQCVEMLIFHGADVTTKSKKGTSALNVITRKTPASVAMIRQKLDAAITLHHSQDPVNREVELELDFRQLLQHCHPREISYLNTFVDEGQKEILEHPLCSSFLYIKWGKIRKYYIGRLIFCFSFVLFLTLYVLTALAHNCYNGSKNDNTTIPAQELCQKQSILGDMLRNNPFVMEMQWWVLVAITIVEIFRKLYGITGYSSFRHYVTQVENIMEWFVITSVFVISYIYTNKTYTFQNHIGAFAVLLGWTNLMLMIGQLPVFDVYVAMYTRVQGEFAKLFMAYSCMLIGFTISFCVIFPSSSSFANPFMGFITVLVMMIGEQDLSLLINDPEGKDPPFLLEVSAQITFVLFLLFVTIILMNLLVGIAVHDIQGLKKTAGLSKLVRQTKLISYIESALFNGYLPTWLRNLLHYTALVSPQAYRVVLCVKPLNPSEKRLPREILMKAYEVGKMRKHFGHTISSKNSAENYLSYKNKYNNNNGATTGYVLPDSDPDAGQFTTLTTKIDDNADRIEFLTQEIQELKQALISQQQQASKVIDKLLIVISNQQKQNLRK

T2: Drosophila melanogaster Water witch fused at its carboxyl terminus with FLAG tags and AcGFP fluorescent … (Drosophila melanogaster)
T2 construct: TRPA channel subunit expressed in hamster CHO-K1 cells by adenovirus; also called Wtrw-FLAG; FLAG-tagged Water witch; not shown: FLAG tags and AcGFP fused in-frame at the carboxyl terminus
T2 chain: T1 sequence (Q9VHY7 1-986)

B1: Drosophila melanogaster Nanchung fused at its carboxyl terminus with HA tags and mCherry fluorescent protein (other)
chain: T1 sequence (Q9VUD5 1-833)
notes: TRPV channel subunit expressed in hamster CHO-K1 cells by adenovirus; For the co-immunoprecipitation the cells were lysed in Triton X-100 buffer; also called Nan-HA; HA-tagged Nanchung; not shown: HA tags and mCherry fused in-frame at the carboxyl terminus

Assays:
[1] = biological target: T1, complexes formed by Nanchung and Water witch proteins (Wtrw + Nan); experiment: Calcium mobilization (fluo-4AM, FLIPR-TETRA) in CHO-K1 cells co-expressing Water witch and Nanchung; type: cell-based; conditions: FIG. 2B; hamster CHO-K1 cells, adenovirus; Wtrw (SEQ ID NO 63) C-terminal FLAG/AcGFP, Nan (SEQ ID NO 7) C-terminal HA/mCherry; fluo-4AM, 20 mM CaCl2, 0.2% DMSO, 10 min; read-out: Wtrw + Nan (Water witch:Nanchung complex) EC50 (calcium response)
[2] = tested on: Nanchung and Water witch (Nan + Wtrw) complexes; experiment: Calcium mobilization (fluo-4, FLIPR) in CHO-K1 cells co-expressing Nanchung and Water witch; conditions: for Ca2+ mobilization response: CHO-K1 cells co-expressing Nanchung and Water witch
Source text: (§1) DNAs encoding for tagged TRP channels were delivered into CHO-K1 cells using adenoviruses. Adenovirus-mediated gene delivery allowed for expression of the gene of interest, optimize expression levels and stoichiometry of subunits, as well as prevention of possible toxic effects of insect TRP channels by maintaining virus-infected cells at room temperature.
(§2) To test the hypothesis that Water witch may also be involved in the action of PM and AP, Water witch was expressed in CHO-K1 cells either alone or in combination with Nanchung. Given that TRP channels are permeable for Ca2+, cell responces were measured by monitoring Ca2+ mobilization using Ca2+ sensitive fluorescent probe FLUO4.
(§3) Hamster CHO-K1 cells (ATCC ® CCL-61TM) were infected with adenoviruses expressing TRP channels individually or in combinations. The cells were kept overnight at 37° C., followed by 3 days at 25° C. The medium was changed two days after seeding. Calcium mobilization was detected using fluorescent calcium probe fluo-4AM (Life Technologies) and measured by FLIPR-TETRA instrument (Molecular Devices, Sunnyvale, CA). The cells were loaded with 50 µl of Hank’s buffered salt solution (HBSS) containing 4 µM fluo-4AM, 5 mM probenecid, 20 mM CaCl2, and 0.02% pluoronic for 2 hours at 25° C. The dye was then discarded, 50 µl of HBSS were added. The test compounds were dissolved in DMSO and added to the cells in 50 µl HBSS, yielding a final DMSO concentration of 0.2%. Fluorescence was monitored for 10 minutes at 1 second intervals at 470-495 nm/515-575 nm excitation/emission wavelengths. EC50 values were calculated using GraphPad Prism (GraphPad Software).

[3] = tested on: Water witch (Wtrw) protein alone; experiment: [3H]-afidopyropen saturation binding to membranes expressing Water witch alone; design: species or system Drosophila melanogaster
[4] = biological target: Nanchung (Nan) protein alone (Drosophila melanogaster, UniProt A0ACM8PYI9); experiment: [3H]-afidopyropen saturation binding to membranes of CHO-K1 cells expressing Nanchung alone; conditions: membranes from CHO-K1 cells expressing Nanchung individually; read-out: Kd, specific binding of tritium-labeled afidopyropen
[5] = biological target: complexes formed by Nanchung protein and Water witch protein (Nan + Wtrw) (Drosophila melanogaster, UniProt A0ACM8PYI9); experiment: biochemical; type: binding; conditions: for Inhibition of binding of tritiated afidopyropen: membranes from cells co-expressing Nanchung and Water witch
Nanchung (Nan) [6] = conditions: previously shown; cited from earlier work
[7] = tested on: Nanchung and Inactive (Nan + Iav) complexes; experiment: Calcium mobilization in CHO-K1 cells co-expressing Nanchung and Inactive; type: cell-based, Drosophila melanogaster
[8] = tested on: Inactive and Water witch (Iav + Wtrw); experiment: Calcium mobilization in CHO-K1 cells co-expressing Inactive and Water witch; type: cell-based, Drosophila melanogaster
[9] = tested on: parental mammalian cells (CHO-K1); experiment: Calcium mobilization in parental mammalian cells; type: cell-based, hamster; conditions: prior to infection
Water witch (Wtrw) = experiment: Calcium mobilization in CHO-K1 cells expressing Water witch alone; conditions: CHO-K1 cells expressing Water witch individually
Source text: as §1, §2, §3

Nanchung (Nan) [10] = experiment: Calcium mobilization in CHO-K1 cells expressing Nanchung alone; type: cell-based, Drosophila melanogaster; conditions: CHO-K1 cells expressing Nanchung individually
[11] = tested on: complexes formed by Nanchung protein and Inactive protein; experiment: [3H]-afidopyropen competition binding to membranes of cells co-expressing Nanchung and Inactive; design: species or system Drosophila melanogaster; conditions: membranes from cells co-expressing Nanchung and Inactive
[12] = biological target: T2, Drosophila melanogaster Water witch …; experiment: co-immunoprecipitation from lysates of adenovirus-transduced CHO-K1 cells; anti-FLAG M2 affinity gel, Western blot with anti-HA

Molecule | Ca2+ mobilization response [2] | Ca2+ mobilization response [7] | Ca2+ mobilization response [9] | Ca2+ mobilization response (Water witch (Wtrw)) | also measured
C[C@]1(COC(=O)C2CC2)[C@@H]2C[C@H](O)[C@@]3(C)Oc4cc(-c5cccnc5)oc(=O)c4[C@H](O)[C@@H]3[C@@]2(C)CC[C@@H]1OC(=O)C1CC1 [AP, afidopyropen] |  |  |  |  | EC50 [1]: 39 nM
NC(=O)c1cnccc1C(F)(F)F [TFNA-AM, 4-trifluoronicotinamide] | without effect |  |  |  | 
C[C@]1(COC(=O)C2CC2)[C@@H]2C[C@H](O)[C@@]3(C)Oc4cc(-c5cccnc5)oc(=O)c4[C@H](O)[C@@H]3[C@@]2(C)CC[C@@H]1OC(=O)C1CC1 [afidopyropen] | elicited calcium mobilization |  |  |  | Binding of tritiated afidopyropen [3]: negligible; Kd [4]: 4.5 nM; Kd [5]: 0.048 nM; Response of Nanchung alone to stimulation (Nanchung (Nan) [6]): does not respond
C=CCN=C=S [allyl isothiocyanate] | efficiently activated | not responsive | not in parental mammalian cells | efficiently activated | Ca2+ mobilization response [8]: activation of Ca2+ mobilization; Ca2+ mobilization response (Nanchung (Nan) [10]): nor in cells expressing Nancung (Nan)
O=CC=Cc1ccccc1 [cinnamaldehyde] | efficiently activated | not responsive | not in parental mammalian cells | efficiently activated | Ca2+ mobilization response [8]: activation of Ca2+ mobilization; Ca2+ mobilization response (Nanchung (Nan) [10]): nor in cells expressing Nancung (Nan)
N#CCNC(=O)c1cnccc1C(F)(F)F [flonicamid] | without effect |  |  |  | 
NC(=O)c1cccnc1 [nicotinamide] | evoked Ca2+ response | evoked Ca2+ response | not in parental mammalian cells | not in the cells expressing these proteins individually | Potency and efficacy of activation, Nanchung:Inactive compared with Nanchung:Water witch complexes ([2]; dose response of calcium responses, FIG. 4B): nearly identical potency and efficacy; Inhibition of binding of tritiated afidopyropen [5]: completely inhibited binding; Inhibition of binding of tritiated afidopyropen [11]: completely inhibited binding
CC1=NNC(=O)N(/N=C/c2cccnc2)C1 [pymetrozine] | elicited calcium mobilization |  |  |  | Inhibition of binding of tritiated afidopyropen [5]: completely inhibited binding; Response of Nanchung alone to stimulation (Nanchung (Nan) [6]): does not respond; Inhibition of binding of tritiated afidopyropen [11]: completely inhibited binding
B1 |  |  |  |  | binding result [12]: binds
